# Assays:
# [1] = Compatibility of nanocrystalline silver with excipients; assay type: physicochemical; settings: 10% aqueous solution of excipient mixed with nanocrystalline silver in glass vial, 40° C. overnight
# Enterobacter cloacae = assay: MIC assay; assay type: cell-based; settings: Ent. cloacae
# Escherichia coli = assay: MIC assay; assay type: cell-based
# [2] = Body weight in rat DNBS-induced colitis; assay type: in vivo, Sprague-Dawley rats; settings: rats with DNBS-induced colitis, intracolonic or oral treatment
# DNBS-induced colitis [3] = assay: Total IBD score in rat DNBS-induced colitis; assay type: in vivo, Sprague-Dawley rats
# Description: Animals: Male Sprague-Dawley rats, weighing approximately 250-300 gm were purchased from Charles River Laboratories (Raleigh, N.C.). The animals were housed under standard conditions with free access to food and water. They were acclimatized for 2-3 days before commencing the experiments. The study protocol was approved by the Institutional Animal Care and Use Committees (IACUC).
# Induction of ulcerative colitis: Colitis was produced according to published methods. Animals were anesthetized by intraperitoneal injection of 75 mg/kg of ketamine plus 5 mg/kg of xylazine. A single intracolonic injection of 120 mg/ml of dinitrobenzenesulfonic acid (DNBS) (Sigma Chemicals, St. Louis, Mo.) in 250 micro liter of 50% ethanol was administered through a Tom Cat catheter (Kendall Sovereign, Mansfield, Mass.) with a closed-end tip, connected to a 1 ml syringe and placed 7 cm proximal to the anus. Lubricant was applied to the tip of the catheter before injection, to protect from mucosal injury. After instillation of DNBS, 0.5 ml of air was insufflated and the catheter was removed.
# Sulfasalazine (Sigma Chemicals, St Louis, Mo.), at a concentration of 120 mg/ml for intracolonic treatment and 30 mg/ml for oral treatment was used as the reference drug in all the experiments. Sulfasalazine was first dissolved in 0.1M NaOH at a concentration about 30-fold higher than the required final concentration, and then suspended in 1.5% PVA for oral dosing and 5.7% PVA for intracolonic dosing.
# One group was not treated and served as no treatment group. Treatment began one day after administration of DNBS.
# Macroscopic Observations: Body weight was recorded daily and the animals were examined for their physical appearance. After five days of treatment, animals were sacrificed. The colon was excised between the ileocecal junction and rectum, and opened longitudinally. After scoring of the consistency of the stool the colon was rinsed in normal saline, examined and thickness of the colonic wall and number and size of ulcers were scored. Stool consistency was graded on a scale of 0-3: 0=normal stool, well formed pellets rigid as normal; 1=loose stool, formed pellet with moisture, soft stool keeping in stool shape; 2=loose stool, stools that have abnormal form with much moisture, softer shapeless stool; 3=watery or bloody diarrhea.
# Thickness of colonic wall was graded on a scale of 0-4: 0=normal, no thickness; 1=mild thickness in lower portion of the colon; 2=moderate thickness in localized area; 3=moderate thickness extending to the central portion of the colon; 4=severe thickness in the whole colon. Colonic ulceration was graded on a scale of 0-10: 0=no ulcers; 1=one small ulcer less than 2-3 mm; 2=one large ulcer more than 2-3 mm; 3=two large ulcerations more than 2-3 mm in diameter; 4=two or more sites of ulcerations extending 1 cm along the length; 5-10=when an area of ulceration extended more than 1 cm along the length of the colon, the score increases by 1 for each additional cm of involvement. The total IBD score, obtained by the sum of the scores of colonic ulcer, colon thickness and stool consistency for each animal, was calculated for each treatment group.
# Statistical Analysis: The results are expressed as the mean ±SE. The statistical significance in the mean total IBD score, histopathological inflammation score, and the immunohistochemical staining of cytokines or MMP-9 was determined using Tukey-Kramer's multiple comparison tests following one-way analysis of variance (ANOVA). The data were calculated with the aid of Instat Graph Pad Software. Differences with a P value less than 0.05 were considered significant.
# Methods: Colitis was induced in rats using DNBS as described in Example 25. Animals were treated intracolonically (250 μl of the test reagents) once a day for five days. […] Methods: Colitis was induced in rats using DNBS as described in Example 25. Animals were treated intracolonically (250 μl of the test reagents) once a day for five days.
# DNBS-induced colitis [4] = assay: Histopathological inflammation score of colon, rat DNBS-induced colitis; assay type: in vivo, Sprague-Dawley rats; settings: oral, 100 mg/kg, five days, vs placebo and untreated
# Description: Histopathology: A piece of colonic tissue at 2-4 cm proximal to the anus was excised and fixed in 10% formalin and the sections were stained with hematoxylin and eosin. The remaining length of the colonic tissues was stored at −80° C. for subsequent biochemical assays. The histology slides were examined by a veterinary pathologist who was blinded to the treatment groups. The extent of microscopic mucosal damage of the colon was scored on scale of 0-5 as described with slight modification: 0=normal histological appearance; 1=histological damage limited to surface epithelium, mild infiltration of the submucosa; 2=focal ulceration and cell disruption limited to mucosa, abnormal appearance of colonic wall, mild infiltration of inflammatory cells; 3=focal, transmural inflammation and ulceration, with mild to moderate infiltration of inflammatory cells; 4=Extensive transmural ulceration and inflammation bordered by areas of normal mucosa, moderate infiltration of inflammatory cells; 5=extensive transmural ulceration and inflammation involving entire section from epithelium to serosa, severe infiltration of inflammatory cells.
# Statistical Analysis: The results are expressed as the mean ±SE. […] The data were calculated with the aid of Instat Graph Pad Software. […]
# IL-1β = assay: Immunohistochemical staining of colon, rat DNBS-induced colitis; assay type: in vivo; settings: oral treatment five days
# Description: (§1) Immunohistochemistry: A Universal Streptavidin/Biotin detection system (Thermo Shandon, Pittsburgh, Pa.) was used for immunohistochemical staining of formalin fixed, paraffin embedded biopsies of the colon. After dewaxing, and hydration, sections were treated with protein blocking agent to reduce non-specific binding of antibodies. The tissues were then incubated with rabbit anti-rat TNF-α, or mouse anti-rat IL-12 p70 antibodies (Biosource International, Inc, Camarillo, Calif.); rabbit anti-rat IL-1β (Serotec, Raleigh, N.C.) or rabbit anti-rat MMP-9 antibody (Chemicon International, Telecuma, Calif.) in 1% bovine serum albumin in phosphate buffered saline. Incubations with secondary antibodies, streptavidin/biotin, and chromogenic detection of peroxidase were performed according to the manufacturer's protocol. Sections were counterstained, dehydrated, mounted and examined. The intensity of the immuno-peroxidase staining was graded as described previously. Expression of cytokines was graded as: 0, no staining in the section; 1, less than 25% of the section; 2, 25-50% of the section; 3, 50-75% of the section; 4, >75% of the section with significant staining.
# MMP-9 = assay: as above; assay type: in vivo; settings: colonic tissues, oral treatment, vs placebo and no treatment
# Description: as §1
# TNF-α = assay: as above; assay type: in vivo; settings: oral treatment five days
# Description: as §1
# Staphylococcus aureus = assay: MIC assay; assay type: cell-based; settings: solutions in 0.1 M lactate buffer pH 4.0
# [5] = tested on: Staphylococcus epidermidis; assay: MIC assay; assay type: cell-based; settings: S. epiderm (ATCC); solutions in 0.1 M lactate buffer pH 4.0
# Streptococcus pyogenes = assay: MIC assay; assay type: cell-based; settings: solutions in 0.1 M lactate buffer pH 4.0
# Streptococcus pneumoniae = assay: MIC assay; assay type: cell-based; settings: solutions in 0.1 M lactate buffer pH 4.0
# Pseudomonas aeruginosa = assay: MIC assay; assay type: cell-based; settings: solutions in 0.1 M lactate buffer pH 4.0
compound,measurement,setting,value
OCc1ccccc1 [Benzyl alcohol],Reaction with nanocrystalline silver,[1],Grey/slightly red
CCCCCCCCCCCCCCCCCCO [Cetearyl alcohol],Reaction with nanocrystalline silver,[1],Light brown/green/black
CCCCCCCCCCCCCCCCO [Cetyl alcohol],Reaction with nanocrystalline silver,[1],Grey color - no discoloration
CCCCCCCCCCCCCCCCCC(=O)OCC(O)CO (stereo not drawn) [Glycerol monostearate],Reaction with nanocrystalline silver,[1],Brown discoloration
CCCCCCCCCCCCCC(=O)OC(C)C [Isopropyl myristate],Reaction with nanocrystalline silver,[1],Grey color - no discoloration
COC(=O)c1ccc(O)cc1 [Methylparaben],Reaction with nanocrystalline silver,[1],Brown discoloration
CC(O)CO (stereo not drawn) [Propylene glycol],Reaction with nanocrystalline silver,[1],Discoloration
CCCOC(=O)c1ccc(O)cc1 [Propylparaben],Reaction with nanocrystalline silver,[1],Green discoloration
"OO [Sample H2O2, hydrogen peroxide]",Reaction with nanocrystalline silver,[1],Brown discoloration after drying
same,MIC,Enterobacter cloacae; absence of catalase and superoxide dismutase (−),63 µg/mL
same,MIC,Enterobacter cloacae; presence of catalase and superoxide dismutase (+),>500 µg/mL
same,MIC,"Escherichia coli; E. coli, absence of catalase and superoxide dismutase (−)",31 µg/mL
same,MIC,"Escherichia coli; E. coli, presence of catalase and superoxide dismutase (+)",>500 µg/mL
O=C([O-])c1ccccc1.[Na+] [Sodium benzoate],Reaction with nanocrystalline silver,[1],White precipitate
CCCCCCCCCCCCCCCCCC(=O)O [Stearic acid],Reaction with nanocrystalline silver,[1],Grey color - no discoloration
"CCOCCOCCO [Transcutol, diethylene glycol monoethyl ether]",Reaction with nanocrystalline silver,[1],Grey color - no discoloration
"O=C(O)c1cc(/N=N/c2ccc(S(=O)(=O)Nc3ccccn3)cc2)ccc1O [sulfasalazine, salicylazosulfapyridine]",body weight change,[2],started gaining body weight after one day of treatment
same,total IBD score vs placebo,"DNBS-induced colitis [3]; Example 27, intracolonic, 100 mg/kg",significantly reduced
same,total IBD score vs placebo,"DNBS-induced colitis [3]; Example 28, intracolonic, 100 mg/kg",significantly reduced
same,total IBD score,"DNBS-induced colitis [3]; intracolonic, 100 mg/kg, five days",Significant reduction
same,histopathological inflammation score,DNBS-induced colitis [4],significantly reduced
same,expression of IL-1β (immunohistochemical staining),IL-1β,significantly reduced
same,expression of MMP-9 (immunohistochemical staining),MMP-9,significantly reduced
same,expression of TNF-α (immunohistochemical staining),TNF-α,significantly reduced
PEG 400,Reaction with nanocrystalline silver,[1],Grey color - no discoloration
Polyoxyl 40 stearate,Reaction with nanocrystalline silver,[1],Grey color - no discoloration
Sodium parabens,Reaction with nanocrystalline silver,[1],Precipitation
silver oxide [Ag2O],MIC,Staphylococcus aureus; S. aureus (ATCC),3 µg/mL
same,MIC,Staphylococcus aureus; S. aureus (clin.),6 µg/mL
same,MIC,[5],2 µg/mL
same,MIC,Streptococcus pyogenes; S. pyog (clin. 303),2 µg/mL
same,MIC,Streptococcus pyogenes; S. pyog (clin. 304),3 µg/mL
same,MIC,Streptococcus pneumoniae; S. pneumo (clin 314),3 µg/mL
same,MIC,Streptococcus pneumoniae; S. pneumo (clin 315),2 µg/mL
same,MIC,Pseudomonas aeruginosa; P. aerug (ATCC),0.8 µg/mL
same,MIC,Pseudomonas aeruginosa; P. aerug. (clin.),2 µg/mL
same,MIC,"Escherichia coli; E. coli (ATCC), solutions in 0.1 M lactate buffer pH 4.0",0.8 µg/mL
same,total IBD score vs placebo,"DNBS-induced colitis [3]; Example 27, intracolonic 250 μl once a day for five days, 0.25% homogenized",unable to show significant reduction
same,total IBD score vs placebo,"DNBS-induced colitis [3]; Example 27, intracolonic 250 μl once a day for five days, 0.5% homogenized",unable to show significant reduction
same,total IBD score vs placebo,"DNBS-induced colitis [3]; Example 27, intracolonic 250 μl once a day for five days, 0.5% sonicated nanodispersion",significantly reduced
same,total IBD score vs placebo,"DNBS-induced colitis [3]; Example 28, intracolonic 250 μl once a day for five days, 0.5% sonicated nanodispersion",significantly reduced
same,total IBD score vs placebo,"DNBS-induced colitis [3]; Example 28, intracolonic 250 μl once a day for five days, 1.5% sonicated nanodispersion",significantly reduced

# — patent US20080050452A1, “METAL-CONTAINING FORMULATIONS AND METHODS OF USE” (priority 2006, published 2008)
